Experimental data published in PubChem BioAssay (NCI).
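96-well plates; 48 h exposure; 5 concentrations. Endpoints by linear interpolation between flanking doses. Not reached: highest tested concentration assigned. Abbreviation: GI50, concentration required for 50% inhibition of growth. At the TGI there is no net growth.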

What was measured:
Experiment in all cases: NCI tumour cell line growth inhibition, 48 h
[1] = test system: SK-MEL-2 melanoma
[2] = test system: HCC-2998 colon
[3] = test system: RXF 393 renal
[4] = test system: NCI-H23 lung
[5] = test system: OVCAR-4 ovarian
[6] = test system: PC-3 prostate
[7] = test system: NCI/ADR-RES ovarian
[8] = test system: NCI-H460 lung
[9] = test system: SNB-75 CNS
[10] = test system: SF-268 CNS
[11] = test system: UACC-257 melanoma
[12] = test system: NCI-H522 lung
[13] = test system: EKVX NSCLC
[14] = test system: SK-MEL-5 melanoma
[15] = test system: HOP-62 NSCLC
[16] = test system: DU-145 prostate
[17] = test system: NCI-H226 lung
[18] = test system: SN12C renal
[19] = test system: ACHN renal
[20] = test system: MCF7 breast
[21] = test system: A498 renal
[22] = test system: HOP-92 NSCLC
[23] = test system: HL-60(TB) leukemia
[24] = test system: M14 melanoma
[25] = test system: A549 NSCLC
[26] = test system: HCT-15 colon
[27] = test system: 786-0 renal
[28] = test system: UACC-62 melanoma
[29] = test system: MALME-3M melanoma
[30] = test system: K-562 leukemia
[31] = test system: OVCAR-3 ovarian
[32] = test system: HT29 colon
[33] = test system: MOLT-4 leukemia
[34] = test system: HCT-116 colon
[35] = test system: CAKI-1 renal
[36] = test system: SF-295 CNS
[37] = test system: OVCAR-8 ovarian
[38] = test system: MDA-MB-231 breast
[39] = test system: IGROV1 ovarian
[40] = test system: SK-MEL-28 melanoma
[41] = test system: HS 578T breast
[42] = test system: LOX IMVI melanoma
[43] = test system: TK-10 renal
[44] = test system: KM12 colon
[45] = test system: RPMI-8226 leukemia
[46] = test system: SW-620 colon
[47] = test system: SNB-19 CNS
[48] = test system: SF-539 CNS
[49] = test system: OVCAR-5 ovarian
[50] = test system: MDA-MB-435
[51] = test system: COLO 205 colon
[52] = test system: BT-549 breast
[53] = test system: CCRF-CEM leukemia
[54] = test system: T-47D breast
[55] = test system: SK-OV-3 ovarian
[56] = test system: U251 CNS
[57] = test system: UO-31 renal

CC1=C(C)C(=O)C(Nc2cccc(C(F)(F)F)c2)=C(Cl)C1=O
GI50 [1]: 8.26 µM | TGI [1]: 21.7 µM | GI50 [2]: 5.88 µM | TGI [2]: 18.4 µM | GI50 [3]: 1.49 µM | TGI [3]: 2.85 µM | GI50 [4]: 6.87 µM | TGI [4]: 24 µM | GI50 [5]: 1.58 µM | TGI [5]: 2.97 µM | GI50 [6]: 2.67 µM | TGI [6]: 12.8 µM | GI50 [7]: 3.16 µM | TGI [7]: 42.3 µM | GI50 [8]: 11.6 µM | TGI [8]: 32.2 µM | GI50 [9]: 1.16 µM | TGI [9]: 13.6 µM | GI50 [10]: 4.99 µM | TGI [10]: 28.6 µM | GI50 [11]: 2.61 µM | TGI [11]: 6.72 µM | GI50 [12]: 2.24 µM | TGI [12]: 5.66 µM | GI50 [13]: 1.49 µM | TGI [13]: 3.73 µM | GI50 [14]: 4.14 µM | TGI [14]: 15.7 µM | GI50 [15]: 11.5 µM | TGI [15]: 27.6 µM | GI50 [16]: 15.6 µM | TGI [16]: 34.8 µM | GI50 [17]: 10.8 µM | TGI [17]: 34.8 µM | GI50 [18]: 4.25 µM | TGI [18]: 23.4 µM | GI50 [19]: 1.73 µM | TGI [19]: 3.18 µM | GI50 [20]: 1.71 µM | TGI [20]: 3.79 µM | GI50 [21]: 13.7 µM | TGI [21]: 45.2 µM | GI50 [22]: 1.5 µM | TGI [22]: 3.04 µM | GI50 [23]: 2.34 µM | TGI [23]: 6.54 µM | GI50 [24]: 9.96 µM | TGI [24]: 32.7 µM | GI50 [25]: 13.3 µM | TGI [25]: > 100 µM | GI50 [26]: 2.2 µM | TGI [26]: 5.05 µM | GI50 [27]: 10.6 µM | TGI [27]: 24.3 µM | GI50 [28]: 3.46 µM | TGI [28]: 16.1 µM | GI50 [29]: 1.98 µM | TGI [29]: 6.04 µM | GI50 [30]: 2.4 µM | TGI [30]: > 100 µM | GI50 [31]: 2.31 µM | TGI [31]: 5.58 µM | GI50 [32]: 7.29 µM | TGI [32]: 51.8 µM | GI50 [33]: 2.22 µM | TGI [33]: > 100 µM | GI50 [34]: 1.93 µM | TGI [34]: 3.99 µM | GI50 [35]: 1.94 µM | TGI [35]: 9.11 µM | GI50 [36]: 6.55 µM | TGI [36]: 24 µM | GI50 [37]: 2.68 µM | TGI [37]: 6.89 µM | GI50 [38]: 1.59 µM | TGI [38]: 3.28 µM | GI50 [39]: 1.42 µM | TGI [39]: 3.19 µM | GI50 [40]: 3.36 µM | TGI [40]: 10.8 µM | GI50 [41]: 6 µM | TGI [41]: 64.4 µM | GI50 [42]: 1.69 µM | TGI [42]: 3.32 µM | GI50 [43]: 19 µM | TGI [43]: 37 µM | GI50 [44]: 3.58 µM | TGI [44]: 25.7 µM | GI50 [45]: 1.32 µM | TGI [45]: 7.32 µM | GI50 [46]: 2.09 µM | TGI [46]: 4.73 µM | GI50 [47]: 5.83 µM | TGI [47]: 23.4 µM | GI50 [48]: 2.4 µM | TGI [48]: 6.61 µM | GI50 [49]: 1.98 µM | TGI [49]: 4.13 µM | GI50 [50]: 5.98 µM | TGI [50]: 19.5 µM | GI50 [51]: 13 µM | TGI [51]: 29.3 µM | GI50 [52]: 8.56 µM | TGI [52]: 22.2 µM | GI50 [53]: 1.93 µM | TGI [53]: > 100 µM | GI50 [54]: 1.17 µM | TGI [54]: 3.6 µM | GI50 [55]: 13 µM | TGI [55]: 50.7 µM | GI50 [56]: 4.45 µM | TGI [56]: 17.9 µM | GI50 [57]: 1.46 µM | TGI [57]: 4.18 µM
